Measurements as given in a melting point compilation (Tetko et al.; mined from patent text by program, amines drawn as free bases though some values may be those of a salt).

melting point [°C] | SMILES
74 to 78 | CC(=O)N(C(=NC1CCCCC1)ON=C(C)C)C1CCCCC1
104 to 106 | N#CCc1ccc(C(=O)c2ccc(Cl)cc2)n1Cc1ccccc1
148 to 153 | Nc1cc(C=C2OC(=O)c3ccccc32)ccc1Cl
112 to 113 | Cc1ccc2cccc(OCC(=O)c3ccc(Cl)cc3)c2n1
78 to 80 | C=CCN1CCCC1CNC(=O)c1cc(S(=O)(=O)CC)cc2c1OCCO2 (configuration not stated)
214 to 217 | CCOC(=O)c1sc(-n2ccc(OCc3ccc(F)cc3)cc2=O)nc1C
193 to 195 | COc1cc(-c2cccs2)ccc1C(=O)/C=C/c1ccc(C(=O)O)cc1
138 | COC(=O)c1cncn1C1c2ccccc2C(Br)(Br)C1(C)C (configuration not stated)
205 to 207 | CC(C)(C)OC(=O)NC1CN(c2c(F)cc3c(=O)c(C(=O)O)cn(C4CC4)c3c2Cl)CC12CC2 (configuration not stated)
123 to 125 | CC1(C)CCC(C)(C)c2cc(-c3cc(C=CC(=O)O)ccc3O)c(OCc3ccc(F)cc3)cc21
113 to 120 | COc1ccc(C(C(c2ccccc2)c2ccc(F)cc2)C(F)(F)F)cc1 (configuration not stated)
179 to 181 | O=C(OCCN1C(=O)C=C(c2ccccc2)C1=O)c1cc([N+](=O)[O-])cc([N+](=O)[O-])c1
> 240 | O=C(C1CCNCC1)N1CCN(c2cccc3[nH]ccc23)CC1
222 to 224 | N#Cc1ccc2oc(-c3cccc(O)c3)cc2c1
101 to 103 | COc1cccc(C(=O)c2sc3cc(OC)ccc3c2-c2ccccc2)c1
211 to 213 | CCn1c(=O)c(C(=O)NN)c(O)c2ccc(C)nc21
171 to 172 | CSc1nc(NCc2ccc(Br)cc2)n2ncc(C(C)C)c2n1
228 to 230 | COC(=O)c1ccc(C(=O)NS(=O)(=O)c2ccc(CCNC(=O)c3ccccc3)cc2)cn1
75 to 77 | COC(=O)c1ccc2c(c1)N(C(C)C)C(=O)C(C)(C)O2
165 | CNc1ncnc2c1ncn2C1OC(CO)C(OC)C1(C)O (configuration not stated)
125 | COc1cnc(N2CCN(c3ccc(N)cc3)CC2)nc1
317 to 320 | Cc1cc(C(=O)O)cc(C)c1C(O)c1cc(-n2ccnc2)ccc1Cl (configuration not stated)
86 to 87 | CCC(=O)C(CCCCCCOc1ccc(S(N)(=O)=O)cc1)C(=O)CC

melting point [°C] | SMILES
182 to 184 | Cn1cnc2c1C(=O)N1CCN=C1N2Cc1ccc(Cl)cc1
61 to 63 | COC(=O)CCC(=O)c1ccc(C)cc1O
142 to 143 | Cc1nn(-c2ccc(C(F)(F)F)cn2)cc1COc1cccc(CC(=O)O)c1
140 | O=Cc1ccc(-c2cn(S(=O)(=O)c3ccccc3)c3ccccc23)o1
237 to 239 | CN1CCN(S(=O)(=O)c2ccc(Nc3ncnc4cc(Cl)ccc34)cc2)CC1
136 to 138 | CCc1cc(NCc2ccc(-c3ccccc3-c3nnn[nH]3)cc2)n2ncc(Cl)c2n1
110 to 111 | Cc1cc(C(O)(c2cc(C)sc2C)c2cc(C)sc2C)c(C)s1
105 to 106 | CCN(CC)c1cccc2nc3n(c12)C=CCCN3c1ccc(Cl)cc1Cl
202 to 204 | CC(C)(C)c1cc(-c2noc(N)n2)cc(C(C)(C)C)c1O
171 to 173 | O=C(NN1CCCCC1)c1nc(-c2ccc(Cl)cc2Cl)c(-c2ccc(Br)cc2)s1
159 to 160 | CCCOc1cnc(CO)cc1O
87 to 89 | OC1(C(c2ccccc2F)n2cccc2)CCN(Cc2ccccc2)C1 (configuration not stated)
116 to 118 | CCOC(=O)c1cc(C)c(Cl)nc1Nc1ccccc1
195 to 197 | O=C(O)COc1c(F)ccc(-c2c3ccccc3c(Br)c3sc4ccccc4c23)c1F
107 to 108 | CCOC(=O)/C(=N\OC1CCCCCC1)c1csc(N)n1
175 to 176 | CC(=O)SC(C)CC(=O)N1CCC[C@H]1C(=O)O (some centres not stated)
300 | COc1ccc2cc(-c3nc(-c4ccncc4)no3)c(=O)oc2c1
152 to 155 | COC(=O)c1cc2c3cc(C)ccc3n(C)c2s1
209 to 211 | CCN1CS(=C2SC(=S)N(Cc3ccccc3)C2=O)c2ccccc21 (configuration not stated)
98 to 100 | CCOC(=O)CCC(=O)Nc1cccc(/C=C/c2nc(C3CCC3)cs2)c1
100 to 120 | CC1COCc2nc3c(N)nc4ccc(OCc5ccccc5)cc4c3n21 (configuration not stated)
85 to 95 | Cc1coc(-c2ccc(-c3ccccc3S(=O)(=O)Nc3onc(C)c3C)cc2)n1
149 to 150 | Cc1oc(-c2ccccc2)nc1CCC(N)=O

melting point [°C] | SMILES
94 to 96 | Cc1ccc(S(=O)(=O)On2nnc3ccc(Cl)cc32)cc1
149 to 151 | CCc1nc2c(c(C)c(C)n3nnnc23)n1CCOCCNC(=O)CCCCl
148 to 150 | COc1ccc(-c2cn(C)cc(-c3cccc(C(F)(F)F)c3)c2=O)cc1OC
118 to 120 | O=C(Nc1ccc(N2CCN(C(=O)Nc3ccc(OCCO)cc3C(F)(F)F)CC2)cc1)Nc1ccccc1OC(F)F
109 to 111 | Cc1ccc(Sc2ccccc2CN(C)C)c([N+](=O)[O-])c1
175 to 181 | COC(=O)C(C)(C)c1ccc(C(=O)CCCCl)cc1
139 to 142 | CNC(=O)c1ccc(Nc2nc(OCC3CCCCC3)c3nc[nH]c3n2)cc1
249 to 251 | COCOc1ccc(-c2ccc(-c3ccc(C(=O)O)cc3)cc2-c2ccc3c(c2)C(C)(C)CCC3(C)C)cc1
114 to 115 | CC(=O)c1c(F)c(F)c(OCCOc2ccc3ccccc3c2)c(F)c1F
150 | O=C(NC[C@@H](C(=O)NO)N1CCCCC1)c1ccc(OCc2ccnc(Br)c2)cc1
191 to 192 | COc1cc(NC(=N)Nc2ccc3c4c(cccc24)CC3)cc2ccccc12
81 to 85 | O=C(Cc1ccccc1)c1ccc(OC=C(F)F)cc1
109 to 110 | O=c1oc2ncccc2n1CCBr
230 to 232 | C=CC[C@H](C(N)=O)[C@@H](CC(C)C)C(=O)NC1N=C(N(C)C)c2ccccc2N(C)C1=O (some centres not stated)
171 to 172 | CCOC(=O)Cc1ccccc1N[C@@H](CCC(N)=O)C(=O)O
161 to 163 | CCOC(=O)c1cc2n(c1)CN(C(=O)OCC)c1ccc(Br)cc1-2
111 to 112 | N#Cc1cccc(C=Cc2cccc(F)c2)n1
116 to 117 | COc1ccnc2c1C(=O)CC(c1ccccc1Cl)C2 (configuration not stated)
152 to 154 | COC(=O)c1c(C(=O)OC)c2n(c1C)Cc1ccccc1C2
145 to 146 | CSc1snc(OCC#CI)c1C#N
65 to 67 | CCC1(CCCCCl)C(=O)Nc2c(Cl)cc(Cl)cc21 (configuration not stated)

SMILES | melting point [°C]
COc1cc2[nH]c(C)c(CCN3CCN(NC(=O)c4ccccc4)CC3)c2cc1OC | 128 to 131
CC12CC(O)C3=C4CCC(=O)C=C4CCC3C1C(O)CC2=O (configuration not stated) | 146
Cc1ccc(OC(=O)CCCC(=O)OOC(=O)CCCC(=O)Oc2ccc(C)cc2)cc1 | 24 to 30
Cn1ccc2cc(NC(=O)c3cc4ccccc4n3Cc3cccc(C(F)(F)F)c3)ccc21 | 189 to 190
CCc1c(OC)cc2c(c1O)C(=O)C[C@H]1CCN(C)C[C@@H]21 (relative stereo) | 221 to 223
